In ChEMBL document CHEMBL5724914, “Linking interpersonal differences in gut microbiota composition and drug biotransformation activity” (2024):

Columns and labels:
[1] = The drug is tested on WLS-220 corresponding to human gut metagenome with ENA study accession number: PRJEB37062 and ENA sample accession number: ERS12561769 for biotransformation under anaerobic condition. The drug concentrations were measured over 9 timepoints collected between 0 and 24 hours of incubation by liquid-chromatography-coupled mass spectrometry (LC–MS); settings: 2 µM
[2] = human gut metagenome, 24 h, 2 µM
[3] = The drug is tested on WLS-240 corresponding to human gut metagenome with ENA study accession number: PRJEB37062 and ENA sample accession number: ERS12561773 for biotransformation under anaerobic condition. The drug concentrations were measured over 9 timepoints collected between 0 and 24 hours of incubation by liquid-chromatography-coupled mass spectrometry (LC–MS); settings: 2 µM
[4] = The drug is tested on Z-010 corresponding to metagenome with ENA study accession number: PRJEB37062 and ENA sample accession number: ERS12561810 for biotransformation under anaerobic condition. The drug concentrations were measured over 9 timepoints collected between 0 and 24 hours of incubation by liquid-chromatography-coupled mass spectrometry (LC–MS); settings: 2 µM
[5] = human gut metagenome, 24 h, 2 µM; remark: listed apart in the source
[6] = The drug is tested on Z-011 corresponding to mouse gut metagenome with ENA study accession number: PRJEB37062 and ENA sample accession number: ERS12561811 for biotransformation under anaerobic condition. The drug concentrations were measured over 9 timepoints collected between 0 and 24 hours of incubation by liquid-chromatography-coupled mass spectrometry (LC–MS); settings: 2 µM
[7] = human gut metagenome, 24 h, 2 µM; remark: listed apart in the source
[8] = human gut metagenome, 24 h, 2 µM; remark: listed apart in the source
[9] = The drug is tested on Z-013 corresponding to rabbit gut metagenome with ENA study accession number: PRJEB37062 and ENA sample accession number: ERS12561813 for biotransformation under anaerobic condition. The drug concentrations were measured over 9 timepoints collected between 0 and 24 hours of incubation by liquid-chromatography-coupled mass spectrometry (LC–MS); settings: 2 µM
[10] = The drug is tested on Z-030 corresponding to mouse gut metagenome with ENA study accession number: PRJEB37062 and ENA sample accession number: ERS12561829 for biotransformation under anaerobic condition. The drug concentrations were measured over 9 timepoints collected between 0 and 24 hours of incubation by liquid-chromatography-coupled mass spectrometry (LC–MS); settings: 2 µM
[11] = human gut metagenome, 24 h, 2 µM; remark: listed apart in the source
[12] = The drug is tested on Z-017 corresponding to mouse gut metagenome with ENA study accession number: PRJEB37062 and ENA sample accession number: ERS12561816 for biotransformation under anaerobic condition. The drug concentrations were measured over 9 timepoints collected between 0 and 24 hours of incubation by liquid-chromatography-coupled mass spectrometry (LC–MS); settings: 2 µM
[13] = The drug is tested on WLS-090 corresponding to human gut metagenome with ENA study accession number: PRJEB37062 and ENA sample accession number: ERS12561753 for biotransformation under anaerobic condition. The drug concentrations were measured over 9 timepoints collected between 0 and 24 hours of incubation by liquid-chromatography-coupled mass spectrometry (LC–MS); settings: 2 µM
[14] = The drug is tested on Z-025 corresponding to rabbit gut metagenome with ENA study accession number: PRJEB37062 and ENA sample accession number: ERS12561824 for biotransformation under anaerobic condition. The drug concentrations were measured over 9 timepoints collected between 0 and 24 hours of incubation by liquid-chromatography-coupled mass spectrometry (LC–MS); settings: 2 µM
[15] = The drug is tested on Z-023 corresponding to metagenome with ENA study accession number: PRJEB37062 and ENA sample accession number: ERS12561822 for biotransformation under anaerobic condition. The drug concentrations were measured over 9 timepoints collected between 0 and 24 hours of incubation by liquid-chromatography-coupled mass spectrometry (LC–MS); settings: 2 µM
[16] = human gut metagenome, 24 h, 2 µM; remark: listed apart in the source
[17] = human gut metagenome, 24 h, 2 µM; remark: listed apart in the source
[18] = human gut metagenome, 24 h, 2 µM; remark: listed apart in the source
[19] = The drug is tested on Z-009 corresponding to pig gut metagenome with ENA study accession number: PRJEB37062 and ENA sample accession number: ERS12561809 for biotransformation under anaerobic condition. The drug concentrations were measured over 9 timepoints collected between 0 and 24 hours of incubation by liquid-chromatography-coupled mass spectrometry (LC–MS); settings: 2 µM
[20] = The drug is tested on Z-003 corresponding to pig gut metagenome with ENA study accession number: PRJEB37062 and ENA sample accession number: ERS12561803 for biotransformation under anaerobic condition. The drug concentrations were measured over 9 timepoints collected between 0 and 24 hours of incubation by liquid-chromatography-coupled mass spectrometry (LC–MS); settings: 2 µM
Further: call rule not given here.

O=C(NC(Cc1cc(=O)[nH]c2ccccc12)C(=O)O)c1ccc(Cl)cc1 (stereo not given) [REBAMIPIDE]
Bacterial Biotransformation [1]: Compound NOT metabolized
Bacterial Biotransformation [2]: Compound NOT metabolized
Bacterial Biotransformation [3]: Compound NOT metabolized
Bacterial Biotransformation [4]: Compound NOT metabolized
Bacterial Biotransformation [5]: Compound NOT metabolized
Bacterial Biotransformation [6]: Compound NOT metabolized
Bacterial Biotransformation [7]: Compound NOT metabolized
Bacterial Biotransformation [8]: Compound NOT metabolized
Bacterial Biotransformation [9]: Compound NOT metabolized
Bacterial Biotransformation [10]: Compound NOT metabolized
Bacterial Biotransformation [11]: Compound NOT metabolized
Bacterial Biotransformation [12]: Compound NOT metabolized
Bacterial Biotransformation [13]: Compound NOT metabolized
Bacterial Biotransformation [14]: Compound NOT metabolized
Bacterial Biotransformation [15]: Compound metabolized
Bacterial Biotransformation [16]: Compound NOT metabolized
Bacterial Biotransformation [17]: Compound NOT metabolized
Bacterial Biotransformation [18]: Compound NOT metabolized
Bacterial Biotransformation [19]: Compound NOT metabolized
Bacterial Biotransformation [20]: Compound NOT metabolized

CCOc1cc(CC(=O)N[C@@H](CC(C)C)c2ccccc2N2CCCCC2)ccc1C(=O)O [REPAGLINIDE]
Bacterial Biotransformation [1]: Compound metabolized
Bacterial Biotransformation [2]: Compound metabolized
Bacterial Biotransformation [3]: Compound metabolized
Bacterial Biotransformation [4]: Compound metabolized
Bacterial Biotransformation [5]: Compound metabolized
Bacterial Biotransformation [6]: Compound NOT metabolized
Bacterial Biotransformation [7]: Compound metabolized
Bacterial Biotransformation [8]: Compound metabolized
Bacterial Biotransformation [9]: Compound NOT metabolized
Bacterial Biotransformation [10]: Compound NOT metabolized
Bacterial Biotransformation [11]: Compound metabolized
Bacterial Biotransformation [12]: Compound metabolized
Bacterial Biotransformation [13]: Compound metabolized
Bacterial Biotransformation [14]: Compound NOT metabolized
Bacterial Biotransformation [15]: Compound metabolized
Bacterial Biotransformation [16]: Compound metabolized
Bacterial Biotransformation [17]: Compound metabolized
Bacterial Biotransformation [18]: Compound metabolized
Bacterial Biotransformation [19]: Compound metabolized
Bacterial Biotransformation [20]: Compound metabolized

CC(N)C12CC3CC(CC(C3)C1)C2 (stereo not given) [RIMANTADINE]
Bacterial Biotransformation [1]: Compound NOT metabolized
Bacterial Biotransformation [2]: Compound NOT metabolized
Bacterial Biotransformation [3]: Compound NOT metabolized
Bacterial Biotransformation [4]: Compound NOT metabolized
Bacterial Biotransformation [5]: Compound NOT metabolized
Bacterial Biotransformation [6]: Compound NOT metabolized
Bacterial Biotransformation [7]: Compound NOT metabolized
Bacterial Biotransformation [8]: Compound NOT metabolized
Bacterial Biotransformation [9]: Compound NOT metabolized
Bacterial Biotransformation [10]: Compound NOT metabolized
Bacterial Biotransformation [11]: Compound NOT metabolized
Bacterial Biotransformation [12]: Compound NOT metabolized
Bacterial Biotransformation [13]: Compound NOT metabolized
Bacterial Biotransformation [14]: Compound NOT metabolized
Bacterial Biotransformation [15]: Compound NOT metabolized
Bacterial Biotransformation [16]: Compound NOT metabolized
Bacterial Biotransformation [17]: Compound NOT metabolized
Bacterial Biotransformation [18]: Compound NOT metabolized
Bacterial Biotransformation [19]: Compound NOT metabolized
Bacterial Biotransformation [20]: Compound NOT metabolized

CCN(C)C(=O)Oc1cccc([C@H](C)N(C)C)c1.O=C(O)C(O)C(O)C(=O)O [RIVASTIGMINE TARTRATE]
Bacterial Biotransformation [1]: Compound NOT metabolized
Bacterial Biotransformation [2]: Compound NOT metabolized
Bacterial Biotransformation [3]: Compound metabolized
Bacterial Biotransformation [4]: Compound NOT metabolized
Bacterial Biotransformation [5]: Compound NOT metabolized
Bacterial Biotransformation [6]: Compound NOT metabolized
Bacterial Biotransformation [7]: Compound NOT metabolized
Bacterial Biotransformation [8]: Compound metabolized
Bacterial Biotransformation [9]: Compound NOT metabolized
Bacterial Biotransformation [10]: Compound NOT metabolized
Bacterial Biotransformation [11]: Compound NOT metabolized
Bacterial Biotransformation [12]: Compound NOT metabolized
Bacterial Biotransformation [13]: Compound NOT metabolized
Bacterial Biotransformation [14]: Compound NOT metabolized
Bacterial Biotransformation [15]: Compound NOT metabolized
Bacterial Biotransformation [16]: Compound NOT metabolized
Bacterial Biotransformation [17]: Compound NOT metabolized
Bacterial Biotransformation [18]: Compound metabolized
Bacterial Biotransformation [19]: Compound NOT metabolized
Bacterial Biotransformation [20]: Compound NOT metabolized

CCCN(CCC)CCc1cccc2c1CC(=O)N2 [ROPINIROLE]
Bacterial Biotransformation [1]: Compound metabolized
Bacterial Biotransformation [2]: Compound metabolized
Bacterial Biotransformation [3]: Compound NOT metabolized
Bacterial Biotransformation [4]: Compound NOT metabolized
Bacterial Biotransformation [5]: Compound NOT metabolized
Bacterial Biotransformation [6]: Compound NOT metabolized
Bacterial Biotransformation [7]: Compound NOT metabolized
Bacterial Biotransformation [8]: Compound NOT metabolized
Bacterial Biotransformation [9]: Compound NOT metabolized
Bacterial Biotransformation [10]: Compound NOT metabolized
Bacterial Biotransformation [11]: Compound metabolized
Bacterial Biotransformation [12]: Compound NOT metabolized
Bacterial Biotransformation [13]: Compound metabolized
Bacterial Biotransformation [14]: Compound NOT metabolized
Bacterial Biotransformation [15]: Compound NOT metabolized
Bacterial Biotransformation [16]: Compound NOT metabolized
Bacterial Biotransformation [17]: Compound NOT metabolized
Bacterial Biotransformation [18]: Compound NOT metabolized
Bacterial Biotransformation [19]: Compound NOT metabolized
Bacterial Biotransformation [20]: Compound metabolized
